Laboratory results taken from ChEMBL document CHEMBL1201862, “PubChem BioAssay data set” (2004).
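Cells were grown in 96-well plates and exposed to each compound for 48 hours at five concentrations; endpoints were interpolated linearly between bracketing concentrations, or set to the highest concentration if not reached. GI50 marks 50% less growth.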 The source made the active and inactive calls. Rule as the data show it: active = GI50 up to about 1.1 µM and inactive = higher. Where a SMILES comes first, the peptide text is derived from it. [ ]: non-standard residue; d: D form. The star is where a group is joined. Phe(4-NO2) = N[CH](Cc1ccc([N+](=O)[O-])cc1)C(=O)O; Boc = CC(C)(C)OC(=O)*

Assays:
Assay in all cases: inhibition of tumour cell growth, NCI panel, 48 h
CAKI-1 = system: CAKI-1
COLO 205 = system: COLO 205
EKVX = system: EKVX
SF-268 = system: SF-268
IGROV-1 = system: IGROV-1
NCI-H460 = system: NCI-H460
KM12 = system: KM12
BT-549 = system: BT-549
RXF 393 = system: RXF 393
SK-MEL-2 = system: SK-MEL-2
SK-MEL-5 = system: SK-MEL-5
MCF7 = system: MCF7
UACC-62 = system: UACC-62
DU-145 = system: DU-145
NCI-H23 = system: NCI-H23
HT-29 = system: HT-29
SNB-19 = system: SNB-19
M14 = system: M14
OVCAR-8 = system: OVCAR-8
Hs-578T = system: Hs-578T
PC-3 = system: PC-3
Malme-3M = system: Malme-3M
U-251 = system: U-251
MDA-MB-435 = system: MDA-MB-435
SF-295 = system: SF-295
CCRF-CEM = system: CCRF-CEM
A549 = system: A549
786-0 = system: 786-0
HOP-62 = system: HOP-62
K562 = system: K562
OVCAR-3 = system: OVCAR-3
TK-10 = system: TK-10
SF-539 = system: SF-539
NCI-H226 = system: NCI-H226
SW-620 = system: SW-620
NCI/ADR-RES = system: NCI/ADR-RES
ACHN = system: ACHN
RPMI-8226 = system: RPMI-8226
SR = system: SR
LOX IMVI = system: LOX IMVI
MOLT-4 = system: MOLT-4
UO-31 = system: UO-31
MDA-MB-231 = system: MDA-MB-231
HCC 2998 = system: HCC 2998
OVCAR-4 = system: OVCAR-4
MDA-N = system: MDA-N
HL-60 = system: HL-60
NCI-H522 = system: NCI-H522
SN12C = system: SN12C
HCT-15 = system: HCT-15
HCT-116 = system: HCT-116
A498 = system: A498
SNB-75 = system: SNB-75
HOP-92 = system: HOP-92
OVCAR-5 = system: OVCAR-5
UACC-257 = system: UACC-257
SK-MEL-28 = system: SK-MEL-28
SK-OV-3 = system: SK-OV-3
T47D = system: T47D

Measured: GI50

COc1cc(C2C3=C(COC3=O)Oc3cc4c(cc32)OCO4)cc(OC)c1OC(C)=O (stereo not given)
inactive: SK-MEL-2 37 µM | OVCAR-4 29.6 µM
0.0226 µM: HCT-15
active: CAKI-1 < 0.01 µM | COLO 205 0.027 µM | EKVX 0.0435 µM | SF-268 0.0608 µM | IGROV-1 0.0239 µM | NCI-H460 0.0212 µM | KM12 0.0135 µM | BT-549 0.0255 µM | RXF 393 < 0.01 µM | SK-MEL-5 < 0.01 µM | MCF7 < 0.012 µM | UACC-62 < 0.01 µM | DU-145 0.0381 µM | NCI-H23 0.0233 µM | HT-29 0.0262 µM | SNB-19 0.024 µM | M14 0.0216 µM | OVCAR-8 0.0316 µM | Hs-578T 0.0101 µM | PC-3 < 0.01 µM | Malme-3M < 0.0215 µM | U-251 0.0388 µM | MDA-MB-435 < 0.01 µM | SF-295 0.0316 µM | CCRF-CEM 0.0258 µM | A549 0.0462 µM | 786-0 0.0186 µM | HOP-62 0.0157 µM | K562 0.0122 µM | OVCAR-3 0.0197 µM | TK-10 0.966 µM | SF-539 < 0.01 µM | NCI-H226 < 0.0376 µM | SW-620 0.0202 µM | NCI/ADR-RES < 0.01 µM | ACHN < 0.01 µM | RPMI-8226 0.0318 µM | SR 0.0406 µM | LOX IMVI 0.0331 µM | MOLT-4 0.0612 µM | UO-31 < 0.0124 µM | MDA-MB-231 0.038 µM | HCC 2998 0.0547 µM | MDA-N < 0.01 µM | HL-60 < 0.0104 µM | NCI-H522 < 0.01 µM | SN12C 0.619 µM | HCT-116 0.0207 µM | A498 0.0116 µM

S=C(NN=C1NCCCN1)Nc1ccccc1
> 100 µM: HCT-15
inactive: CAKI-1 > 100 µM | SNB-75 > 100 µM | COLO 205 > 100 µM | EKVX > 100 µM | SF-268 > 100 µM | IGROV-1 > 100 µM | HOP-92 > 100 µM | NCI-H460 > 100 µM | KM12 > 100 µM | BT-549 > 100 µM | OVCAR-5 > 100 µM | UACC-257 > 100 µM | RXF 393 > 100 µM | SK-MEL-2 > 100 µM | SK-MEL-5 > 100 µM | MCF7 > 100 µM | UACC-62 > 100 µM | SK-MEL-28 > 100 µM | NCI-H23 > 100 µM | HT-29 > 100 µM | SNB-19 > 100 µM | OVCAR-8 > 100 µM | Hs-578T > 100 µM | PC-3 > 100 µM | SK-OV-3 > 100 µM | Malme-3M > 100 µM | U-251 > 100 µM | MDA-MB-435 > 100 µM | SF-295 > 100 µM | CCRF-CEM 43.3 µM | A549 > 100 µM | 786-0 > 100 µM | HOP-62 > 100 µM | K562 99.5 µM | OVCAR-3 > 100 µM | TK-10 > 100 µM | SF-539 > 100 µM | NCI-H226 > 100 µM | SW-620 > 100 µM | NCI/ADR-RES > 100 µM | ACHN > 100 µM | RPMI-8226 28.2 µM | SR 63.1 µM | LOX IMVI > 100 µM | MOLT-4 48.3 µM | UO-31 > 100 µM | HCC 2998 > 100 µM | OVCAR-4 > 100 µM | HL-60 52.8 µM | NCI-H522 60.4 µM | T47D > 100 µM | HCT-116 > 100 µM | A498 > 100 µM

c1ccc2c(c1)SC1=Nc3sc4ccccc4[n+]3CN12
active: A549 1.04 µM
40.2 µM: HCT-15
inactive: CAKI-1 14.2 µM | COLO 205 2.13 µM | EKVX 2.15 µM | SF-268 17.4 µM | IGROV-1 11.8 µM | HOP-92 7.53 µM | NCI-H460 15.3 µM | KM12 2.34 µM | BT-549 22.8 µM | OVCAR-5 15 µM | UACC-257 30.7 µM | SK-MEL-2 11.4 µM | SK-MEL-5 2.52 µM | MCF7 16.4 µM | UACC-62 15.5 µM | DU-145 27.8 µM | NCI-H23 6.01 µM | HT-29 12.6 µM | SNB-19 19.9 µM | M14 22 µM | OVCAR-8 26.4 µM | Hs-578T 13.7 µM | PC-3 24.8 µM | SK-OV-3 17.2 µM | Malme-3M 10.5 µM | U-251 3.3 µM | MDA-MB-435 19.7 µM | SF-295 29.4 µM | CCRF-CEM 16.6 µM | 786-0 25.9 µM | HOP-62 21.9 µM | K562 6.12 µM | OVCAR-3 2.88 µM | TK-10 14.8 µM | SF-539 20.5 µM | SW-620 10.4 µM | NCI/ADR-RES 30.9 µM | ACHN 32.8 µM | RPMI-8226 21.8 µM | SR 16.9 µM | MOLT-4 11.7 µM | UO-31 18.5 µM | MDA-MB-231 18.3 µM | HL-60 32.1 µM | NCI-H522 2.7 µM | T47D 18.5 µM | SN12C 20.8 µM | HCT-116 18.5 µM

CC(=O)Oc1cc(C)c(OC(C)=O)c2c1[C@H]1CC[C@]3(C)[C@@H](OC(C)=O)CC[C@H]3[C@@H]1CC2
inactive: CAKI-1 17.5 µM | SNB-75 26.6 µM | EKVX 13.5 µM | SF-268 23.3 µM | IGROV-1 17.1 µM | HOP-92 11.5 µM | NCI-H460 17.7 µM | KM12 15.3 µM | BT-549 15.9 µM | OVCAR-5 21.5 µM | UACC-257 15.8 µM | RXF 393 16.8 µM | SK-MEL-5 17.5 µM | MCF7 20.6 µM | UACC-62 17.7 µM | DU-145 16.6 µM | SK-MEL-28 16.4 µM | NCI-H23 18.4 µM | HT-29 17.1 µM | SNB-19 17.8 µM | M14 16.3 µM | OVCAR-8 20.5 µM | Hs-578T 23.4 µM | PC-3 13.9 µM | Malme-3M 17.4 µM | U-251 15.9 µM | MDA-MB-435 14.4 µM | SF-295 20.7 µM | CCRF-CEM 17.9 µM | A549 17.5 µM | 786-0 21.8 µM | HOP-62 19.9 µM | K562 23.7 µM | OVCAR-3 18.2 µM | TK-10 16.1 µM | SF-539 19.2 µM | NCI-H226 > 10 µM | SW-620 18.4 µM | NCI/ADR-RES 18.2 µM | ACHN 14.6 µM | RPMI-8226 19.5 µM | SR 29.8 µM | LOX IMVI 15.8 µM | MOLT-4 11.6 µM | UO-31 15.3 µM | MDA-MB-231 17.1 µM | HCC 2998 13.9 µM | MDA-N 14.6 µM | HL-60 20 µM | NCI-H522 16.9 µM | SN12C 16.7 µM | HCT-116 16.6 µM | A498 18.7 µM
17.5 µM: HCT-15

CCOC(=O)CCC(NC(=O)C(Cc1ccc([N+](=O)[O-])cc1)NC(=O)OC(C)(C)C)C(=O)NC(CCC(=O)OCC)C(=O)OCC (stereo not given) (Boc-[Phe(4-NO2)]-Glu(OEt)-Glu(OEt)-OEt; configuration not given here)
36 µM: HCT-15
inactive: SNB-75 15.6 µM | COLO 205 21.2 µM | EKVX > 10 µM | IGROV-1 20.3 µM | HOP-92 15.8 µM | NCI-H460 23.4 µM | KM12 11.7 µM | BT-549 22.2 µM | OVCAR-5 20.7 µM | UACC-257 > 10 µM | RXF 393 16.6 µM | SK-MEL-2 13.2 µM | SK-MEL-5 17.4 µM | MCF7 28 µM | UACC-62 16.8 µM | SK-MEL-28 15.6 µM | NCI-H23 17.9 µM | HT-29 16.3 µM | SNB-19 95.9 µM | M14 16.8 µM | OVCAR-8 18.5 µM | Hs-578T 18.7 µM | PC-3 19.7 µM | Malme-3M 18.2 µM | U-251 19.8 µM | A549 38.5 µM | 786-0 16.8 µM | HOP-62 24.2 µM | K562 > 10 µM | TK-10 15.5 µM | NCI-H226 16.8 µM | SW-620 17.9 µM | ACHN 17.4 µM | RPMI-8226 18.1 µM | SR 2.87 µM | MOLT-4 2.73 µM | UO-31 > 100 µM | MDA-MB-231 27 µM | HCC 2998 15.8 µM | MDA-N 21.1 µM | HL-60 14.9 µM | SN12C 22.3 µM | HCT-116 18.3 µM | A498 19.5 µM
